Results: ChEMBL document CHEMBL1147836, “Benzo[b]thiophene-2-carboxamides and benzo[b]furan-2-carboxamides are potent antagonists of the human H3-receptor” (Bioorg Med Chem Lett, 2006)

Biological target: Histamine H3 receptor (Homo sapiens, UniProt Q9Y5N1)
Experiment: Antagonist activity at human histamine H3 receptor by [35S]GTP-gamma-S assay
Type: functional

Histamine H3 receptor, sequence (Q9Y5N1 whole entry): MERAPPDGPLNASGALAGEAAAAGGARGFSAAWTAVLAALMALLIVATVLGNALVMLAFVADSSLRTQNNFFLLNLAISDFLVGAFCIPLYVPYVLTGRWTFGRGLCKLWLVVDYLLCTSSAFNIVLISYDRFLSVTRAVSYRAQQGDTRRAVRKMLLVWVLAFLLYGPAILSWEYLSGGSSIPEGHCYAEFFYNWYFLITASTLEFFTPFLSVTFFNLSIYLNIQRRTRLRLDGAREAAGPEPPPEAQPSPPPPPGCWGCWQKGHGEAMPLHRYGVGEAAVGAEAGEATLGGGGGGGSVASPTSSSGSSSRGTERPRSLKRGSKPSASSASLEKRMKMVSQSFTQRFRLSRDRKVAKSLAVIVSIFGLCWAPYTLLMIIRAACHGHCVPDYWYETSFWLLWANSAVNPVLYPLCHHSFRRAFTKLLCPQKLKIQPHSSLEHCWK

SMILES	Ki [nM]
CCOc1cccc2cc(C(=O)N3CCC[C@H]3CN3CCCC3)oc12	7
CCN(CC)C[C@@H]1CCCN1C(=O)c1cc2ccc(C(F)(F)F)cc2o1	46
O=C(c1cc2ccccc2s1)N1CCC[C@H]1CN1CCCC1	4
N#Cc1ccc2oc(C(=O)N3CCC[C@H]3CN3CCCC3)cc2c1	5
CCN(CC)C[C@@H]1CCCN1C(=O)c1cc2cc(C(F)(F)F)ccc2o1	14
O=C(c1cnc2ccccc2c1)N1CCC[C@H]1CN1CCCCC1	> 150
O=C(c1cnc2ccccc2c1)N1CCC[C@H]1CN1CCCC1	> 150
O=C(c1sc2ccccc2c1Cl)N1CCC[C@H]1CN1CCCC1	12

Results, then the molecule that gave them:

Ki [nM]	SMILES
22	O=C(c1cc2ccc(C(F)(F)F)cc2o1)N1CCC[C@H]1CN1CCCCC1
4	O=C(c1cc2cc(C(F)(F)F)ccc2o1)N1CCC[C@H]1CN1CCCC1
11	O=C(c1cc2cc(OC(F)(F)F)ccc2o1)N1CCC[C@H]1CN1CCCC1
7	O=C(c1cc2cc(C(F)(F)F)ccc2o1)N1CCC[C@H]1CN1CCCCC1
5	O=C(c1cc2cc(Cl)ccc2o1)N1CCC[C@H]1CN1CCCC1
15	O=C(c1cc2ccc(C(F)(F)F)cc2o1)N1CCC[C@H]1CN1CCCC1
